We go through two compounds from patent US6525001B1, “Substituted pyrimidine and pyridine herbicides” (Mid-American Commercialization Corporation, priority 1997, dated 2003).

Common to all, as to experiment: Test D
What all share (assay type): in vivo
Details in all cases: PREEMERGENCE

Test [1] concerns deadnettle (Lamium amplexicaule).
The subject of test [2] is spring barley (Hordeum vulgare).
Test [3] concerns scentless chamomile (Matricaria inodora).
Test [4] has as its system black nightshade (Solanum nigra). Further details: key: 0 is no effect; 100 is complete control.
For test [5], the system named is wild oat (Avena fatua).
Test [6] has as its system wild mustard (Sinapis arvensis). Set-up: key: 0 is no effect; 100 is complete control.
The test system of test [7] is redroot pigweed (Amaranthus retroflexus).
In test [8] the test system is downy brome (Bromus tectorum).

Each structure is given as a SMILES string.

Regarding `CCc1cnc(-n2ccc(C(F)(F)F)n2)nc1Cc1cccc(C(F)(F)F)c1` [Compound 46], the “Plant response rating, Deadnettle” value in test [1] (Rate 31 g/ha) and in test [1] (Rate 62 g/ha) was 90 throughout. Also, the “Plant response rating, Spring Barley” value in test [2] (Rate 31 g/ha) is given as 30; in test [2] (Rate 62 g/ha), 5. Moreover, the “Plant response rating, Scentless chamo” value in test [3] (Rate 31 g/ha) is recorded as 65; in test [3] (Rate 62 g/ha) it was 70. Also, the “Plant response rating, Blk nightshade” value in test [4] (Rate 31 g/ha) and in test [4] (Rate 62 g/ha) was 50 in each case. Besides, the “Plant response rating, Wild oat” value is 50 in test [5] (Rate 31 g/ha) and 70 in test [5] (Rate 62 g/ha). The results for the “Plant response rating, Wild mustard” value in test [6] (Rate 31 g/ha) and in test [6] (Rate 62 g/ha) were 90 and 100, respectively. For the same compound, the “Plant response rating, Redroot pigweed” value in test [7] (Rate 31 g/ha) and in test [7] (Rate 62 g/ha) was 70 in each case. In addition, the “Plant response rating, Downy brome” value in test [8] (Rate 31 g/ha) and in test [8] (Rate 62 g/ha) was 70 throughout.

On to `Cc1cnc(-n2cnc(C(F)(F)F)n2)nc1Cn1ccc(C(F)(F)F)n1` [Compound 51], for which the “Plant response rating, Deadnettle” value in test [1] (Rate 31 g/ha) and in test [1] (Rate 62 g/ha) was 80 each time. In addition, the entries for the “Plant response rating, Spring Barley” value in test [2] (Rate 31 g/ha) and in test [2] (Rate 62 g/ha) were 70 and 80, respectively. For the same compound, the “Plant response rating, Scentless chamo” value in test [3] (Rate 31 g/ha) amounted to 65; in test [3] (Rate 62 g/ha), 70. The “Plant response rating, Blk nightshade” value in test [4] (Rate 31 g/ha) is on record as 100; in test [4] (Rate 62 g/ha), 95. In addition, the “Plant response rating, Wild oat” value is 80 in test [5] (Rate 31 g/ha) and 95 in test [5] (Rate 62 g/ha). The “Plant response rating, Wild mustard” value in test [6] (Rate 31 g/ha) and in test [6] (Rate 62 g/ha) was 100 in each case. The “Plant response rating, Redroot pigweed” value in test [7] (Rate 31 g/ha) and in test [7] (Rate 62 g/ha) was 70 throughout. Besides, the “Plant response rating, Downy brome” value in test [8] (Rate 31 g/ha) and in test [8] (Rate 62 g/ha) was 80 each time.
